Experimental findings from US8067454B2, “Thio-substituted Anthra [1, 2-d] imidazole- 6, 11-dione derivatives, preparation method and application thereof” (National Defense Medical Center, priority 2010, dated 2011) are described below.

Data set [1] has as its system telomerase (total cell lysates of lung cancer cell line H1299). Put plainly: Telomeric Repeat Amplification Protocol (TRAP) assay, screen of telomerase inhibitors. The settings on record: 10 μM. The class given is biochemical, human. How it is done:
Telomeric Repeat Amplification Protocol (TRAP) Assay:
Telomerase activity was detected by a modified version of the general TRAP protocol. Telomerase products were resolved by 10% polyacrylamide gel electrophoresis and visualized by staining with SYBER Green. As a source of telomerase, the total cell lysates derived from lung cancer cell line H1299 cells were used. Protein concentration of the lysates was assayed using Bio-Rad protein assay kit using BSA standards.
In the TRAP assay, if a compound can stabilize the G-quadruplex structure such that telomerase can not act on telomere, then the effect of inhibiting the telomerase can be achieved. In the FIG. 2A to FIG. 2C, DMSO treatment represents as the positive control group (P); while a negative control group (N) used 5 μl of 0.1 mg/ml RNase A (CLONTECH) in the assay. It could be observed that a number of telomeric fragments were detected in the positive control group (P), while none was detected in the negative control group (N). 10 μM was selected as the concentration used to screen compounds.

The subject of data set [2] is SVG p12, GBM8401 and GBM8901. The data set is described as follows: MTT assay, normal cell versus tumor cells (categories 39-3 to 39-7). To be noted: tumor cell survival rate less than 80%; for category 39-3: survival rate higher than 80% for normal cell SVG p12 and inhibits growth of both tumor cells GBM8401 and GBM8901: FIG. 5A; for category 39-4: survival rate higher than 80% for normal cell SVG p12 and only inhibits growth of tumor cell GBM8401: FIG. 5B. On the technique in general: Tetrazolium assays rely on reduction of a dye to a coloured formazan, in cell work by metabolically active cells.

For a further data set, the system named is GBM8401. Put plainly: MTT assay, GBM8401 tumor cell. To be noted: for Cell survival rate (%) GBM8401: concentration 10 μM, tumor cell.
In another data set the test system is GBM8901. Put plainly: MTT assay, GBM8901 tumor cell. To be noted: for Cell survival rate (%) GBM8901: concentration 10 μM, tumor cell.
For another data set, the system named is SVG p12. The data set is described as follows: MTT assay, SVG p12 normal cell. The settings on record: for Cell survival rate (%) SVG p12: concentration 10 μM, normal cell.

Turning to `O=C1c2ccccc2C(=O)c2c1ccc1nc(SCCCCCBr)[nH]c21` [f1-9, 2-(5-bromopentylthio)-1H-anthra[1,2-d]imidazole-6,11-dione], the “inhibition effect against telomerase” value in data set [1] is “exhibited inhibition effect against telomerase”. The “category 39-5: survival rate higher than 80% for normal cell SVG p12 and only inhibits growth of tumor cell GBM8901” value in data set [2] (FIG. 5C) is “in this category”. Moreover, the “Cell survival rate (%) GBM8401” value with GBM8401 is 62 ± 19%.

`O=C1c2ccccc2C(=O)c2c1ccc1nc(SCCN3CCCCC3)[nH]c21` [f1-12, 2-(2-(Piperidin-1-yl)ethylthio)-1H-anthra[1,2-d]imidazole-6,11-dione]: in the data set with GBM8901, the “Cell survival rate (%) GBM8901” value was 42 ± 8%. Besides, the “inhibition effect against telomerase” value in data set [1] was “exhibited inhibition effect against telomerase”. In addition, the “Cell survival rate (%) SVG p12” value in the data set with SVG p12 turned out to be 22 ± 8%. Moreover, in the data set with GBM8401, the “Cell survival rate (%) GBM8401” value is recorded as 6 ± 13%.

For the compound `CCN(CC)C(=O)CSc1nc2ccc3c(c2[nH]1)C(=O)c1ccccc1C3=O` [f1-18, 2-(6,11-dioxo-6,11-dihydro-1H-anthra[1,2-d]imidazol-2-ylthio)-N,N-diethylacetamide], the “Cell survival rate (%) GBM8901” value in the data set with GBM8901 amounted to 42 ± 3%. In data set [1], the “inhibition effect against telomerase” value is given as “exhibited inhibition effect against telomerase”. Also, in the data set with SVG p12, the “Cell survival rate (%) SVG p12” value came out at 65 ± 3%. Moreover, the “Cell survival rate (%) GBM8401” value in the data set with GBM8401 is recorded as 23 ± 13%.

For `C=CCSc1nc2ccc3c(c2[nH]1)C(=O)c1ccccc1C3=O` [f1-19, 2-(allylthio)-1H-anthra[1,2-d]imidazole-6,11-dione], in the data set on GBM8901, the “Cell survival rate (%) GBM8901” value is reported as 50 ± 6%. In data set [1], the “inhibition effect against telomerase” value is recorded as “exhibited inhibition effect against telomerase”. The “category 39-3: survival rate higher than 80% for normal cell SVG p12 and inhibits growth of both tumor cells GBM8401 and GBM8901” value in data set [2] is “in this category”. Besides, the “Cell survival rate (%) SVG p12” value in the data set on SVG p12 turned out to be 89 ± 5%. Further, in the data set on SVG p12 (survival rate higher than 80%), the “without cell toxicity for normal cell SVGP p12” value is “without cell toxicity for normal cell SVGP p12”. The “Cell survival rate (%) GBM8401” value in the data set with GBM8401 was 42 ± 18%.

On to `O=C1c2ccccc2C(=O)c2c1ccc1nc(SCC(=O)N3CCCC3)[nH]c21` [f1-21, 2-(2-oxo-2-(pyrrolidin-1-yl)ethylthio)-1H-anthra[1,2-d]imidazole-6,11-dione], for which, in the data set on GBM8901, the “Cell survival rate (%) GBM8901” value is on record as 38 ± 5%. Further, in data set [1], the “inhibition effect against telomerase” value is listed as “exhibited inhibition effect against telomerase”. Moreover, the “Cell survival rate (%) SVG p12” value in the data set on SVG p12 came out at 63 ± 1%. Besides, the “Cell survival rate (%) GBM8401” value in the data set with GBM8401 stood at 30 ± 10%.

In the case of `O=C(Sc1nc2ccc3c(c2[nH]1)C(=O)c1ccccc1C3=O)c1ccccc1[N+](=O)[O-]` [f2-1, S-6,11-dioxo-6,11-dihydro-1H-anthra[1,2-d]imidazol-2-yl 2-nitrobenzothioate], the “Cell survival rate (%) GBM8901” value in the data set with GBM8901 amounted to 58 ± 3%. Moreover, in data set [1], the “inhibition effect against telomerase” value is “exhibited inhibition effect against telomerase”. For the same compound, in data set [2], the “category 39-4: survival rate higher than 80% for normal cell SVG p12 and only inhibits growth of tumor cell GBM8401” value was “in this category”.

For `O=C1c2ccccc2C(=O)c2c1ccc1nc(SC(=O)N3CCOCC3)[nH]c21` [f2-2, S-6,11-dioxo-6,11-dihydro-1H-anthra[1,2-d]imidazol-2-yl morpholine-4-carbothioate], in the data set on GBM8901, the “Cell survival rate (%) GBM8901” value stood at 43 ± 2%. Moreover, the “inhibition effect against telomerase” value in data set [1] is reported as “exhibited inhibition effect against telomerase”. Besides, the “Cell survival rate (%) SVG p12” value with SVG p12 turned out to be 96 ± 7%. Besides, the “Cell survival rate (%) GBM8401” value with GBM8401 was determined as 92 ± 11%.

On to `CN1CCN(C(=O)Sc2nc3ccc4c(c3[nH]2)C(=O)c2ccccc2C4=O)CC1` [f2-3, S-6,11-dioxo-6,11-dihydro-1H-anthra[1,2-d]imidazol-2-yl 4-methylpiperazine-1-carbothioate], for which the “Cell survival rate (%) GBM8901” value in the data set with GBM8901 is 38 ± 2%. Further, the “inhibition effect against telomerase” value in data set [1] was “exhibited inhibition effect against telomerase”. The “Cell survival rate (%) SVG p12” value in the data set with SVG p12 is given as 62 ± 3%. Further, in the data set on GBM8401, the “Cell survival rate (%) GBM8401” value amounted to 62 ± 11%.

Consider `O=C(Sc1nc2ccc3c(c2[nH]1)C(=O)c1ccccc1C3=O)c1cc(C(F)(F)F)ccc1C(F)(F)F` [f2-5, S-6,11-dioxo-6,11-dihydro-1H-anthra[1,2-d]imidazol-2-yl 2,5-bis(trifluoromethyl)benzothioate], for which the “Cell survival rate (%) GBM8901” value with GBM8901 turned out to be 68 ± 6%. In addition, the “category 39-3: survival rate higher than 80% for normal cell SVG p12 and inhibits growth of both tumor cells GBM8401 and GBM8901” value in data set [2] is given as “in this category”. Also, the “Cell survival rate (%) SVG p12” value with SVG p12 was determined as 82 ± 1%. In addition, the “Cell survival rate (%) GBM8401” value in the data set on GBM8401 was 40 ± 13%.

On to `Cc1cc(C(=O)Sc2nc3ccc4c(c3[nH]2)C(=O)c2ccccc2C4=O)c(C)o1` [f2-6, S-6,11-dioxo-6,11-dihydro-1H-anthra[1,2-d]imidazol-2-yl 2,5-dimethylfuran-3-carbothioate], for which, in the data set on GBM8901, the “Cell survival rate (%) GBM8901” value is given as 38 ± 7%. Further, the “inhibition effect against telomerase” value in data set [1] is listed as “exhibited inhibition effect against telomerase”. For the same compound, in data set [2], the “category 39-4: survival rate higher than 80% for normal cell SVG p12 and only inhibits growth of tumor cell GBM8401” value was “in this category”.

Take `CCN(CC)C(=O)Sc1nc2ccc3c(c2[nH]1)C(=O)c1ccccc1C3=O` [f2-9, S-6,11-dioxo-6,11-dihydro-1H-anthra[1,2-d]imidazol-2-yl diethylcarbamothioate]: the “Cell survival rate (%) GBM8901” value with GBM8901 is listed as 50 ± 0%. Besides, the “inhibitory effect against tumor cell GBM8901” value in the data set on GBM8901 (survival rate less than 80%) is “exhibited inhibitory effect against tumor cell GBM8901”. Further, in data set [2], the “category 39-3: survival rate higher than 80% for normal cell SVG p12 and inhibits growth of both tumor cells GBM8401 and GBM8901” value was “in this category”. The “Cell survival rate (%) SVG p12” value with SVG p12 worked out at 90 ± 8%. The “Cell survival rate (%) GBM8401” value with GBM8401 is 46 ± 13%. The “inhibitory effect against tumor cell GBM8401” value in the data set with GBM8401 (survival rate less than 80%) is “exhibited inhibitory effect against tumor cell GBM8401”.
